Test [1] relates to Francisella tularensis.
Test [2] deals with Tyrosine-protein kinase BTK (Homo sapiens) (UniProt Q06187). In words: Receptor occupancy at BTK in human Ramos B cells at 1 uM preincubated for 1 hr followed by compound washout measured after 20 hrs by PP-BODIPY probe based fluorescence assay. The class given is cell-based.

These results are taken from ChEMBL document CHEMBL4190228, “Covalent inhibitors design and discovery” (Eur J Med Chem, 2017).

SMILES strings stand for the structures.

Chain of Tyrosine-protein kinase BTK (Homo sapiens) (Q06187 whole entry): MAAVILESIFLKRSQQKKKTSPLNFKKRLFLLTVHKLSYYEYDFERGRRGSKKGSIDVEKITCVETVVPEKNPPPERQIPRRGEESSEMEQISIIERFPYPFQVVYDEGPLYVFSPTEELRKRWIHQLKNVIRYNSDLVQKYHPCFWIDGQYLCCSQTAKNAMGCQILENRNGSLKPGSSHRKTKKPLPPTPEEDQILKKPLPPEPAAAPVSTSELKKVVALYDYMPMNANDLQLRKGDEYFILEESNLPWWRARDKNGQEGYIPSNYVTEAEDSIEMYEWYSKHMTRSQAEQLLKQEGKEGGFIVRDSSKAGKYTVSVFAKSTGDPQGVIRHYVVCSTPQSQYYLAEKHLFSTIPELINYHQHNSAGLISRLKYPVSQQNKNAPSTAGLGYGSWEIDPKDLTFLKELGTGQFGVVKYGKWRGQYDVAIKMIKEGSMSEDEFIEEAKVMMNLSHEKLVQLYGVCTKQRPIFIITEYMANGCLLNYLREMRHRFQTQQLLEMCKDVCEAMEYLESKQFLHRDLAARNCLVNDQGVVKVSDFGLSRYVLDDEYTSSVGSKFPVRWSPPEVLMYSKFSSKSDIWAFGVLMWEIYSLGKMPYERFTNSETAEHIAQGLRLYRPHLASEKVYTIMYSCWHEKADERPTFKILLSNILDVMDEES

In turn, `CC(C)(C)NC(=O)[C@H]1CC[C@H]2[C@@H]3CC[C@H]4NC(=O)C=C[C@]4(C)[C@H]3CC[C@]12C` displayed a T1/2 in test [1] of 4.7 to 7.1 h. `C/C=C(\C#N)C(=O)N1CCC[C@@H](n2nc(-c3ccc(Oc4ccccc4)cc3)c3c(N)ncnc32)C1` had an Occ in test [2] of 5%. On to `CC(C)(C)/C=C(\C#N)C(=O)N1CCC[C@@H](n2nc(-c3ccc(Oc4ccccc4)cc3)c3c(N)ncnc32)C1`, for which the Occ in test [2] was 50%.
